Holding throughout (type): biochemical
Assay [1] deals with LRRK2 G2019S (Homo sapiens (Human), UniProt Q5S007, G2019S). Description: LRRK2 G2019S Kinase Assay (Adapta). The note with it: 100 μM ATP, LRRKtide substrate; read-out: LRRK2_G2019S IC50. Here is the method: (§1) The LRRK2 and LRRK2 G2019S kinase assays were performed using the Adapta™ technology in ThermoFisher Scientific. This experiment was carried out according to the supplier's protocol. Briefly, assay conditions were as follows. The mixture of substrate (LRRKtide) and each kinase was prepared in 50 mM Tris pH 8.5, 0.01% BRIJ-35, 10 mM MgCl2, 1 mM EGTA, 0.02% NaN3. Assays were performed in the presence of 70 μM ATP and 100 μM ATP (KmATP) in LRRK2 and LRRK2 G2019S, respectively. The reaction was progressed at room temperature for 1 hour. Upon completion of kinase reaction, 5 μL of Detection Mix was added and after 60 min incubation time, the emission ratio of 665/615 nm was calculated.
Sequence of LRRK2 G2019S (Q5S007 whole entry G2019S): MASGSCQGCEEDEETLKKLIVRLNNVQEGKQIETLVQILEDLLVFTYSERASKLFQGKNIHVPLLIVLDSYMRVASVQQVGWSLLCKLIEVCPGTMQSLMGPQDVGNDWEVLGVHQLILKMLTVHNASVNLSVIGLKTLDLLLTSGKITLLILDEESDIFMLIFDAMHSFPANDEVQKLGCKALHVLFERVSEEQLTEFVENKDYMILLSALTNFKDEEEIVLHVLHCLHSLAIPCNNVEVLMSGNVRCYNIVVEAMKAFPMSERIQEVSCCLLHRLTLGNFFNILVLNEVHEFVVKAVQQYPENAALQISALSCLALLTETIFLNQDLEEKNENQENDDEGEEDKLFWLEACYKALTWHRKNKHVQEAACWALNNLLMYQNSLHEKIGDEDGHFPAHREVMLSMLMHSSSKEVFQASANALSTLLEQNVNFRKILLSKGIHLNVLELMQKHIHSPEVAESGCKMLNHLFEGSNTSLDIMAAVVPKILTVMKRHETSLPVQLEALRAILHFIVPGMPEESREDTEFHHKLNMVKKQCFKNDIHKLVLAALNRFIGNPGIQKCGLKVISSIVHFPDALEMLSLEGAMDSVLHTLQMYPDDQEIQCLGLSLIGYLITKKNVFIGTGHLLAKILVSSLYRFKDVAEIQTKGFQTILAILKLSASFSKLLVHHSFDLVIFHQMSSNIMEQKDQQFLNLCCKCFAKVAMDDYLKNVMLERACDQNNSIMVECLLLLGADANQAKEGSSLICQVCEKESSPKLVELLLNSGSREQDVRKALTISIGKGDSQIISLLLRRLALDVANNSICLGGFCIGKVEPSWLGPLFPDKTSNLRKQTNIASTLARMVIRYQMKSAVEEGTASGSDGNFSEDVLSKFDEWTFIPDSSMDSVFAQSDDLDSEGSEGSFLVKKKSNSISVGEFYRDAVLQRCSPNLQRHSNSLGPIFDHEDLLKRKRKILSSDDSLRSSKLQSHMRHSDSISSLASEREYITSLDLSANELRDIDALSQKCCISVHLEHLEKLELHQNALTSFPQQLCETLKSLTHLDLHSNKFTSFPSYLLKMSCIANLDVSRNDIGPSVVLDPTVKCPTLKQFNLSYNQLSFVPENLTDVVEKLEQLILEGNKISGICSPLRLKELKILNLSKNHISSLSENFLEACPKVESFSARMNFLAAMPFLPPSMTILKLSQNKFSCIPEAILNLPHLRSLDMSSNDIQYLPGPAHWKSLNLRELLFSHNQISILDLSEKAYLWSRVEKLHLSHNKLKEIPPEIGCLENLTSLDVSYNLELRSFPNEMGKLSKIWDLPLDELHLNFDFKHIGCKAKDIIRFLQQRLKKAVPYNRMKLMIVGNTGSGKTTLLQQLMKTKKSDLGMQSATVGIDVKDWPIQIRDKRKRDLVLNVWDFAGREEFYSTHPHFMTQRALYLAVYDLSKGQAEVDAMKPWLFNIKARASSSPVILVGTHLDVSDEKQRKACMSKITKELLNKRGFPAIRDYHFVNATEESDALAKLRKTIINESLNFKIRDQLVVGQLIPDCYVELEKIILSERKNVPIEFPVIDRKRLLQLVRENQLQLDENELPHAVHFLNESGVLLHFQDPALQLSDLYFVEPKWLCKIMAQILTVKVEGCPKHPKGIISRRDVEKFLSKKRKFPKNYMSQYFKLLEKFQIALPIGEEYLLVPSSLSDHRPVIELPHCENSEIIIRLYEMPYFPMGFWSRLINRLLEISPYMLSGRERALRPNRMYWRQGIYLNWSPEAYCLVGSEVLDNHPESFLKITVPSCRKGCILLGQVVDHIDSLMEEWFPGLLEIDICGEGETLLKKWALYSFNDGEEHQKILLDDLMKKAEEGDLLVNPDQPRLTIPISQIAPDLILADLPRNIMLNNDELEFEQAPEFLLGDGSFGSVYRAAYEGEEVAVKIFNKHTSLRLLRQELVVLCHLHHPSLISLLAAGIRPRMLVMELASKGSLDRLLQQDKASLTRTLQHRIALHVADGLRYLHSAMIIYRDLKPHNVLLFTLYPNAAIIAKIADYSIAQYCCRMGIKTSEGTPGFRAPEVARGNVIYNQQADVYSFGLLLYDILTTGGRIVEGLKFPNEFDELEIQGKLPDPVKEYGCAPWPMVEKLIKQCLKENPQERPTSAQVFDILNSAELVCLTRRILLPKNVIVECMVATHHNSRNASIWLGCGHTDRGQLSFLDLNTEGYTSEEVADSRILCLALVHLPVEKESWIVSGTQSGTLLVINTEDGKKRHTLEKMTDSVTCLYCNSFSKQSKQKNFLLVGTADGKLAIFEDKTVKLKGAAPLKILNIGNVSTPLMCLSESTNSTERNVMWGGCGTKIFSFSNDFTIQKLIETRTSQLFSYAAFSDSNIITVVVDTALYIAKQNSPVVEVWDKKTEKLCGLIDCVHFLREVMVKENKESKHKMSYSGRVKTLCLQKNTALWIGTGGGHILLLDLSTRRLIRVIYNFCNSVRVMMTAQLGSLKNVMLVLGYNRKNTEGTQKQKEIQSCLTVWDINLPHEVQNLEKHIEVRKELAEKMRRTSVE

Assay [2] addresses LRRK2 (WT) (Homo sapiens (Human), UniProt Q5S007). Description: LRRK2 Kinase Assay (Adapta). The note with it: 70 μM ATP, LRRKtide substrate. Here is the method:
as §1

The target in assay [3] is c-Abl (His-tagged recombinant human ABL1) (Homo sapiens (Human), UniProt P00519). Briefly: c-abl Kinase Assay (ADP-Glo). The note with it: ATP (25 μM), Abltide substrate. As to the method:
ADP-Glo assay kit was purchased from Promega. Magnesium chloride (MgCl2), bovine serum albumin (BSA), ethylene glycol-bis(p-aminoethyl ether)-N,N,N′,N′-tetraacetic acid (EGTA), triton X-100, 1,4-dithiothreitol (DTT) and dimethyl sulfoxide (DMSO) were purchased from Sigma-Aldrich. HEPES buffer was purchased from Gibco. ABL1 kinase and Abltide were purchased from Signalchem.
c-Abl kinase activity was measured by Promega's ADP-Glo™ Assay. In this assay, His-tagged recombinant human ABL1 (0.25 ng/μl) is incubated with 5 μL of compounds (0.5% DMSO), 5 μL of Abltide (0.01 μg/μl) and 5 μL of ATP (25 μM) in buffer (50 mM HEPES, 7.5; 10 mM MgCl2; 1 mM EGTA; 0.05% BSA; 0.01% Triton X-100; 2 mM DTT). The assay was started by incubating the reaction mixture in a 96-well plate at 30° C. for 30-min. After the incubation, 25 μL ADP-Glo reagent was added and the reaction was incubated at room temperature for 40-min to stop the reaction and degrade residual ATP. The ADP product was then converted to ATP by adding 50 μL per well of detection reagent. Luminescence was detected after 30-min room temperature incubation with the Molecular device I3X plate reader. The IC50 values were calculated from a series of percent inhibition values determined at a range of inhibitor concentration using software routines as implemented in the GraphPad Prism 7 software and Sigma Plot 13.0.
A general note: In ADP-Glo the light output rises with the ADP produced.

For eleven compounds, IC50 results are on record in US11098044B2, “Imidazopyridinyl compounds and use thereof for treatment of neurodegenerative disorders” (1ST Biotherapeutics, Inc., priority 2019, dated 2021).

Some results are limits rather than exact numbers.

Sequence of c-Abl (His-tagged recombinant human ABL1) (P00519 whole entry): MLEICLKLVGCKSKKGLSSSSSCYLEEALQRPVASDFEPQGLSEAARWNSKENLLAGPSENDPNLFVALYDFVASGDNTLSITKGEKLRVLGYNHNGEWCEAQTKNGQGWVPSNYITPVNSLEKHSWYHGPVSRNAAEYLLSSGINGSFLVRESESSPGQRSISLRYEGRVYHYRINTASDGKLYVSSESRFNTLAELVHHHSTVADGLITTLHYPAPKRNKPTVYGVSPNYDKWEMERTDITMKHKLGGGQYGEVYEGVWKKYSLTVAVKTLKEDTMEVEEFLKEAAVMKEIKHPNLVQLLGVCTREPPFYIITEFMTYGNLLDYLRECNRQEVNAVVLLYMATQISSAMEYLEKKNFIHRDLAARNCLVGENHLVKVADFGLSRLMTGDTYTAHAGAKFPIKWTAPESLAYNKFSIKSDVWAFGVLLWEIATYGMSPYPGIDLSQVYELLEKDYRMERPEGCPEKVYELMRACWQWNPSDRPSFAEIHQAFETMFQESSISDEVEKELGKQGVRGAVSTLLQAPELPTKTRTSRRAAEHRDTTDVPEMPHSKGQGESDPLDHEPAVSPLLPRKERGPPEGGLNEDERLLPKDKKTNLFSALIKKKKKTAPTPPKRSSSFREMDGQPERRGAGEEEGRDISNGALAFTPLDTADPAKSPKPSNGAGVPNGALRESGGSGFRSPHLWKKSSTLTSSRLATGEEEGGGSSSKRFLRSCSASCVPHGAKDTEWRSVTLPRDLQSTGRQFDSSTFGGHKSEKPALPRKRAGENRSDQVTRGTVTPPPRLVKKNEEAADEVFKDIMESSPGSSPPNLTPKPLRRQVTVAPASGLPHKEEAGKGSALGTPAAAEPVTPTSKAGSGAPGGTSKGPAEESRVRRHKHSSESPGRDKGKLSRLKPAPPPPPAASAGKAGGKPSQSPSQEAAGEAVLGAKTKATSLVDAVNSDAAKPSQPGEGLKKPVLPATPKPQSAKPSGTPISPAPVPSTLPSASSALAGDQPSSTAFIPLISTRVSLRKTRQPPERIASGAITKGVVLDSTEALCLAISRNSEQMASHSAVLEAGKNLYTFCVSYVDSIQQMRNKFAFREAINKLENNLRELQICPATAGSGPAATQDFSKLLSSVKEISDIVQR
Sequence of LRRK2 (WT) (Q5S007 whole entry): as the sequence (Q5S007 whole entry G2019S) above, with S2019G counted along it

As a reminder, the IC50 is the point on the concentration scale where inhibition reaches its midpoint. On to `Cc1c(O)cccc1-c1ccc2nc(NC(=O)[C@@H]3C[C@@H]3F)cn2c1` [Example 20, (1S,2S)-2-fluoro-N-(6-(3-hydroxy-2-methylphenyl)imidazo[1,2-a]pyridin-2-yl)cyclopropane-1-carboxamide], for which the 50% inhibitory concentration (IC50) in assay [1] was 10 to 100 nM; in assay [2], under 10 nM; in assay [3], under 10 nM.
For `O=C(Nc1cn2cc(-c3ccc4sc(=O)[nH]c4c3)ccc2n1)[C@@H]1C[C@@H]1F` [Example 54, (1S,2S)-2-fluoro-N-(6-(2-oxo-2,3-dihydrobenzo[d]thiazol-5-yl)imidazo[1,2-a]pyridin-2-yl)cyclopropane-1-carboxamide], the concentration for half-maximal inhibition (IC50) in assay [1] is 101 to 1000 nM; in assay [2] it was over 1000 nM; in assay [3], 10 to 100 nM.
In the same order, the values of `Cc1c(F)cncc1-c1ccc2nc(NC(=O)[C@@H]3C[C@@H]3F)c(C)n2c1` [Example 10, (1S,2S)-2-fluoro-N-(6-(5-fluoro-4-methylpyridin-3-yl)-3-methylimidazo[1,2-a]pyridin-2-yl)cyclopropane-1-carboxamide] are over 1000 nM, over 1000 nM and 101 to 1000 nM.
The corresponding values for `O=C(Nc1cn2cc(-c3cccc(F)c3COCCO)ccc2n1)[C@@H]1C[C@@H]1F` [Example 83, (1S,2S)-2-fluoro-N-(6-(3-fluoro-2-((2-hydroxyethoxy)methyl)phenyl)imidazo[1,2-a]pyridin-2-yl)cyclopropanecarboxamide] are over 1000 nM, 101 to 1000 nM and 101 to 1000 nM.
The corresponding values for `Cc1ccsc1-c1ccc2nc(NC(=O)[C@@H]3C[C@@H]3F)cn2c1` [Example 41, (1S,2S)-2-fluoro-N-(6-(3-methylthiophen-2-yl)imidazo[1,2-a]pyridin-2-yl)cyclopropane-1-carboxamide] are 10 to 100 nM, 10 to 100 nM and under 10 nM.
For the compound `COC(=O)c1ccc(C)c(-c2ccc3nc(NC(=O)[C@@H]4C[C@@H]4F)cn3c2)c1` [Example 13, methyl 3-(2-((1S,2S)-2-fluorocyclopropane-1-carboxamido)imidazo[1,2-a]pyridin-6-yl)-4-methylbenzoate], the 50% inhibitory concentration (IC50) in assay [1] is over 1000 nM; in assay [2] it was over 1000 nM; in assay [3], under 10 nM.
As to `Cc1ccncc1-c1ccc2nc(NC(=O)[C@@H]3C[C@@H]3F)cn2c1` [Example 6, (1S,2S)-2-fluoro-N-(6-(4-methylpyridin-3-yl)imidazo[1,2-a]pyridin-2-yl)cyclopropane-1-carboxamide], the IC50 in assay [1] was in the range of 101 to 1000 nM; in assay [2], 101 to 1000 nM; in assay [3] it was 10 to 100 nM.
For the compound `CC(C)NCc1c(F)cccc1-c1ccc2nc(NC(=O)[C@@H]3C[C@@H]3F)cn2c1` [Example 81, (1S,2S)-2-fluoro-N-(6-(3-fluoro-2-((isopropylamino)methyl)phenyl)imidazo[1,2-a]pyridin-2-yl)cyclopropanecarboxamide], the concentration for half-maximal inhibition (IC50) in assay [1], in assay [2] and in assay [3] was over 1000 nM each time.
Take `Cc1ccc(N)cc1-c1ccc2nc(NC(=O)[C@@H]3C[C@@H]3F)cn2c1` [Example 23, (1S,2S)—N-(6-(5-amino-2-methylphenyl)imidazo[1,2-a]pyridin-2-yl)-2-fluorocyclopropane-1-carboxamide]: the results for the IC50 in assay [1], in assay [2] and in assay [3] were 10 to 100 nM, 101 to 1000 nM and under 10 nM, respectively.
`CC(=O)NCc1c(F)cccc1-c1ccc2nc(NC(=O)[C@@H]3C[C@@H]3F)cn2c1` [Example 75, (1S,2S)—N-(6-(2-(acetamidomethyl)-3-fluorophenyl)imidazo[1,2-a]pyridin-2-yl)-2-fluorocyclopropanecarboxamide]: the IC50 in assay [1] was over 1000 nM; in assay [2], over 1000 nM; in assay [3], 101 to 1000 nM.
As to `O=C1Cc2ccc(-c3ccc4nc(NC(=O)[C@@H]5C[C@@H]5F)cn4c3)cc2N1` [Example 35, (1S,2S)-2-fluoro-N-(6-(2-oxoindolin-6-yl)imidazo[1,2-a]pyridin-2-yl)cyclopropane-1-carboxamide], the values for the concentration for half-maximal inhibition (IC50) in assay [1], in assay [2] and in assay [3] were over 1000 nM, over 1000 nM and 10 to 100 nM, respectively.
